From patent US11957680B2, “Pyruvate kinase activators for use in treating blood disorders” (Agios Pharmaceuticals, Inc., priority 2017, dated 2024)

Assays:
PKR R510Q = PKR R510Q (Homo sapiens, UniProt P30613, R510Q); test: PKR mutant assay (R510Q), AC50, LDH/NADH-coupled, absorbance at 340 nm; format: biochemical; conditions: Table 2, enzyme assay; for AC50: read-out: PK R510Q AC50
Procedure: (§1) Example 11. PKR Mutant Assay
(§2) PKR or PKR mutant enzyme solution was diluted into a reaction mix, which contains 1× buffer (100 mM KCl, 50 mM Tris pH 7.5, 5 mM MgCl2) as well as PEP (conc depends on enzyme), 180 μM NADH, 0.5 units LDH, 1 mM DTT, 0.03% BSA; final assay concentrations after 1.11 fold dilution are indicated.
(§3) 2 μL of test compound was added into wells first, and then 180 μL reaction mix was added.
(§4) Reactions mixture with test compound was assembled except for ADP, and plates were stored for 60 minutes at room temperature.
(§5) 20 uL ADP was added to start reaction at room temperature and reaction progress was measured as changes in absorbance at 340 nm wavelength at room temperature.
(§6) Test Compound Preparation:
(§7) Test compound stock was made at 100× concentration in 100% DMSO (10 mM)
(§8) 1 to 3 dilutions were made for 11 points (i.e. 50 μl of first concentration added to 100 μl 100% DMSO to yield 3.33 mM, 50 μl of this added to 100 μl DMSO to yield 1.11 mM, and so forth) • 1 to 100 dilution into assay (2 μl in 200 μl) yielded starting concentration of 100 μM, decreasing 3 fold for 11 points.
(§9) Assay Buffer: 100 mM KCl, 50 mM Tris 7.5, 5 mM MgCl2, 1 mM DTT, 0.03% BSA
(§10) Reaction Mixture: PKR mutant enzyme: 40-400 ng/well; ADP: 0.2-1.65 mM; PEP: 0.1-0.5 mM; NADH: 180 μM; LDH: 0.5 units (Sigma #59023); DTT: 1 mM; BSA: 0.03%.

PKR K410E = PKR K410E (Homo sapiens, UniProt P30613, K410E); test: PKR mutant assay (K410E), AC50, LDH/NADH-coupled, absorbance at 340 nm; format: biochemical; conditions: Table 2; enzyme assay
PKR K410E, sequence (P30613 whole entry K410E): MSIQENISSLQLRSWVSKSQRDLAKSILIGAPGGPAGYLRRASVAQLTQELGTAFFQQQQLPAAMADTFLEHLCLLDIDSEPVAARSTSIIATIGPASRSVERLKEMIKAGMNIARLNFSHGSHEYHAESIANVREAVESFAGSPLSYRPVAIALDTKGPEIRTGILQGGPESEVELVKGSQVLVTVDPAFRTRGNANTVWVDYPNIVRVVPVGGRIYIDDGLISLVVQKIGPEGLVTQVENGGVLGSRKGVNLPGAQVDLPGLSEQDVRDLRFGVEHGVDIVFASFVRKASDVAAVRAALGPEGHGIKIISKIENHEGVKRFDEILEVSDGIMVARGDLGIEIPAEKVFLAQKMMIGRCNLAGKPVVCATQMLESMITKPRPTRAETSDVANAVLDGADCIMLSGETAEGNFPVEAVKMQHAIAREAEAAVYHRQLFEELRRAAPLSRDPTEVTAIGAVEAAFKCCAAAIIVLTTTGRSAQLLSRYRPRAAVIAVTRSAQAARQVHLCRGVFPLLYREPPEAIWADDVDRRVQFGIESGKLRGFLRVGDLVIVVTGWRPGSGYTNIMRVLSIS
Procedure: as §1, §2, §3, §4, §5, §6, §7, §8, §9, §10

wild type PKR [1] = biological target: T1, wild type PKR (Homo sapiens, UniProt P30613); test: Cell based ATP assay in purified red blood cells (Cell-Titer-Glo); set-up: endogenous in cells; host or cells: purified red blood cells from healthy volunteers; conditions: Table 2; RBCs, overnight at 37° C., ATP levels
T1 sequence (P30613 whole entry): as the sequence (P30613 whole entry K410E) above, with E410K counted along it
Procedure: Example 16. Red Blood Cell (RBC) Purification
Fresh blood drawn from healthy volunteers into K2EDTA tubes was collected. Whole blood was pelleted by spinning at 500 g for 10 minutes. Cut transfusion bag port off of Purecell leukocyte reduction neofilter (Fisher NC0267633) one (1) inch above filter. Attach a 10 ml syringe barrel to the remaining cut tubing attached to neofilter. The plasma layer was removed from the pellet of the whole blood and the pellet was resuspended in 2× volume of phosphate buffered saline (PBS). Transfer 9 ml re-suspended blood cell pellet to prepared 10 ml syringe that is attached to the neofilter. Allow whole blood to gravity flow through filter until all fluid runs through upper tubing into filter disc. Add plunger to the syringe, remove syringe from clamp and invert the filter, then plunge air through the syringe filter system. Using a new 5 ml syringe, remove filtered RBCs from the bag by the syringe port and transfer purified RBCs to a 5 ml snap cap tube that has been incubated on ice. Spin 5 ml snap cap tube at 500 g for 10 minutes at 15 C, aspirate supernatant and resuspend in AGAM (1×PBS, 1% glucose, 170 mg/L adenine, 5.25 g/L mannitol) at a density of 4×10^9 cells/mL.
Example 17. Cell Based ATP Assay
For cell based ATP assays, the compound as described herein was prepared in 100% DMSO as a 10 mM stock. Serial dilutions (1:4) were performed in 96-well V-bottom storage plate and then added 1:100 to 96-well V-bottom plates containing AGAM. RBCs were diluted in AGAM media to a density of 1×10^7 cells/mL before added 90 μL/well to black clear bottom assay plates (final compound concentration at 0.1% DMSO concentration). Assay plates were sealed using aluminum foil seals and incubated overnight at 37° C. in a humidified chamber. ATP levels were read out using Cell-Titer-Glo (Promega).

wild type PKR [2] = biological target: T1, wild type PKR; test: PKR (wild type) enzyme AC50 assay, LDH/NADH-coupled, absorbance at 340 nm; format: biochemical; conditions: Table 2; enzyme assay; read-out: PKR WT AC50
Procedure: as §1, §2, §3, §4, §5, §6, §7, §8, §9, §10

PKR R510Q, sequence (P30613 whole entry R510Q): as the sequence (P30613 whole entry K410E) above, with E410K, R510Q counted along it

Structure (SMILES) | AC50 (PKR R510Q) | AC50 (PKR K410E) | AC50 (wild type PKR [1]) | AC50 (wild type PKR [2]) | PKR K410E AC50 (PKR K410E) | Cell based ATP assay AC50 (wild type PKR [1]) | PK R510Q AC50 (PKR R510Q)
COc1cccc(Cn2ncc3c4sc(C)nc4n(C)c3c2=O)c1 [Compound 1] | < 300 nM | < 300 nM | ≤ 1000 nM | < 300 nM | – | – | –
COc1ccc(Cn2ncc3c4sc(C)nc4n(C)c3c2=O)cc1 [Compound 2] | – | < 300 nM | ≤ 1000 nM | < 300 nM | – | – | –
Cc1nc2c(s1)c1cnn(Cc3ccccc3F)c(=O)c1n2C [Compound 3] | < 300 nM | < 300 nM | ≤ 1000 nM | < 300 nM | – | – | –
COc1cccc(Cn2ncc3c4sc(C(=O)c5ccccc5)nc4n(C)c3c2=O)c1 [Compound 4] | > 800 nM | – | – | > 800 nM | No Fit | No Fit | –
COc1cccc(Cn2ncc3c4sc(Cc5ccccc5)nc4n(C)c3c2=O)c1 [Compound 5] | < 300 nM | < 300 nM | ≤ 1000 nM | < 300 nM | – | – | –
Cc1nc2c(s1)c1cnn(Cc3cccc(F)c3)c(=O)c1n2C [Compound 6] | > 800 nM | > 800 nM | > 1000 nM | > 800 nM | – | – | –
Cc1nc2c(s1)c1cnn(Cc3cccc(O)c3)c(=O)c1n2C [Compound 7] | < 300 nM | < 300 nM | ≤ 1000 nM | < 300 nM | – | – | –
COc1ccccc1Cn1ncc2c3sc(C)nc3n(C)c2c1=O [Compound 8] | 301 to 800 nM | 301 to 800 nM | > 1000 nM | > 800 nM | – | – | –
Cc1nc2c(s1)c1cnn(Cc3ccc(F)cc3)c(=O)c1n2C [Compound 9] | < 300 nM | < 300 nM | ≤ 1000 nM | < 300 nM | – | – | –
CCOC(=O)c1cccc(Cn2ncc3c4sc(C)nc4n(C)c3c2=O)c1 [Compound 10] | > 800 nM | > 800 nM | – | > 800 nM | – | No Fit | –
Cc1nc2c(s1)c1cnn(Cc3cccc(C(=O)O)c3)c(=O)c1n2C [Compound 11] | > 800 nM | > 800 nM | – | > 800 nM | – | No Fit | –
COc1cccc(Cn2ncc3c4sc(C(F)c5ccccc5)nc4n(C)c3c2=O)c1 (stereo not shown) [Compound 12] | < 300 nM | < 300 nM | – | < 300 nM | – | – | –
COc1cccc(Cn2ncc3c4sc(C(O)c5ccccc5)nc4n(C)c3c2=O)c1 (stereo not shown) [Compound 13] | < 300 nM | < 300 nM | ≤ 1000 nM | < 300 nM | – | – | –
Cc1nc2c(s1)c1cnn(Cc3cccc(N)c3)c(=O)c1n2C [Compound 14] | < 300 nM | < 300 nM | ≤ 1000 nM | < 300 nM | – | – | –
Cc1nc2c(s1)c1cnn(Cc3cccc(NC(N)=O)c3)c(=O)c1n2C [Compound 15] | < 300 nM | > 800 nM | > 1000 nM | > 800 nM | – | – | –
Cc1nc2c(s1)c1cnn(Cc3ccc(O)cc3)c(=O)c1n2C [Compound 16] | < 300 nM | < 300 nM | – | < 300 nM | – | – | –
Cc1cccc(Cn2ncc3c4sc(C)nc4n(C)c3c2=O)n1 [Compound 17] | < 300 nM | < 300 nM | ≤ 1000 nM | < 300 nM | – | – | –
Cc1nc2c(s1)c1cnn(Cc3ccccc3O)c(=O)c1n2C [Compound 18] | < 300 nM | 301 to 800 nM | ≤ 1000 nM | 301 to 800 nM | – | – | –
COc1cccc(Cn2ncc3c4scnc4n(C)c3c2=O)c1 [Compound 19] | < 300 nM | 301 to 800 nM | > 1000 nM | 301 to 800 nM | – | – | –
Cc1nc2c(s1)c1cnn(Cc3ccc4nn[nH]c4c3)c(=O)c1n2C [Compound 20] | > 800 nM | > 800 nM | > 1000 nM | > 800 nM | – | – | –

Structure (SMILES) | AC50 (PKR R510Q) | AC50 (PKR K410E) | AC50 (wild type PKR [1]) | AC50 (wild type PKR [2]) | PKR K410E AC50 (PKR K410E) | Cell based ATP assay AC50 (wild type PKR [1]) | PK R510Q AC50 (PKR R510Q)
Cc1nc2c(s1)c1cnn(CO)c(=O)c1n2C [Compound 21] | – | > 800 nM | – | > 800 nM | – | No Fit | No Fit
COc1cccc(Cn2ncc3c4sc(OC)nc4n(C)c3c2=O)c1 [Compound 22] | < 300 nM | < 300 nM | > 1000 nM | < 300 nM | – | – | –
COc1cccc(Cn2ncc3c4sc(SC)nc4n(C)c3c2=O)c1 [Compound 23] | < 300 nM | < 300 nM | > 1000 nM | < 300 nM | – | – | –
COc1cccc(Cn2ncc3c4sc([S+](C)[O-])nc4n(C)c3c2=O)c1 (stereo not shown) [Compound 24] | < 300 nM | < 300 nM | > 1000 nM | < 300 nM | – | – | –
COc1cccc(Cn2ncc3c4sc(S(C)(=O)=O)nc4n(C)c3c2=O)c1 [Compound 25] | < 300 nM | < 300 nM | > 1000 nM | < 300 nM | – | – | –
Cc1nc2c(s1)c1cnn(Cc3cccc4[nH]ncc34)c(=O)c1n2C [Compound 26] | < 300 nM | > 800 nM | ≤ 1000 nM | < 300 nM | – | – | –
COc1cccc(Cn2ncc3c4sc(C)nc4n(C)c3c2=O)n1 [Compound 27] | 301 to 800 nM | 301 to 800 nM | ≤ 1000 nM | < 300 nM | – | – | –
Cc1nc2c(s1)c1cnn(Cc3cccc(F)n3)c(=O)c1n2C [Compound 28] | > 800 nM | > 800 nM | > 1000 nM | > 800 nM | – | – | –
Cc1nc2c(s1)c1cnn(Cc3ccc4[nH]ncc4c3)c(=O)c1n2C [Compound 29] | < 300 nM | < 300 nM | > 1000 nM | < 300 nM | – | – | –
COc1cccc(Cn2ncc3c4sc(Cl)nc4n(C)c3c2=O)c1 [Compound 30] | < 300 nM | 301 to 800 nM | > 1000 nM | < 300 nM | – | – | –
COc1cccc(Cn2ncc3c4sc(Cc5ccc(Cl)cc5)nc4n(C)c3c2=O)c1 [Compound 31] | < 300 nM | 301 to 800 nM | ≤ 1000 nM | < 300 nM | – | – | –
COc1cccc(Cn2ncc3c4sc(Cc5ccc(C)cc5)nc4n(C)c3c2=O)c1 [Compound 32] | < 300 nM | < 300 nM | ≤ 1000 nM | < 300 nM | – | – | –
Cc1nc2c(s1)c1cnn(Cc3ccc4cn[nH]c4c3)c(=O)c1n2C [Compound 33] | 301 to 800 nM | > 800 nM | > 1000 nM | > 800 nM | – | – | –
COc1cccc(Cn2ncc3c4sc(Sc5ccccc5)nc4n(C)c3c2=O)c1 [Compound 34] | < 300 nM | < 300 nM | ≤ 1000 nM | < 300 nM | – | – | –
COc1cccc(Cn2ncc3c4sc([S+]([O-])c5ccccc5)nc4n(C)c3c2=O)c1 (stereo not shown) [Compound 35] | 301 to 800 nM | 301 to 800 nM | > 1000 nM | 301 to 800 nM | – | – | –
COc1cccc(Cn2ncc3c4sc(S(=O)(=O)c5ccccc5)nc4n(C)c3c2=O)c1 [Compound 36] | 301 to 800 nM | 301 to 800 nM | > 1000 nM | > 800 nM | – | – | –
C=Cc1nc2c(s1)c1cnn(Cc3cccc(OC)c3)c(=O)c1n2C [Compound 37] | < 300 nM | > 800 nM | > 1000 nM | 301 to 800 nM | – | – | –
COc1cccc(Cn2ncc3c4sc(C=O)nc4n(C)c3c2=O)c1 [Compound 38] | < 300 nM | < 300 nM | > 1000 nM | < 300 nM | – | – | –
CCc1nc2c(s1)c1cnn(Cc3cccc(OC)c3)c(=O)c1n2C [Compound 39] | < 300 nM | < 300 nM | > 1000 nM | < 300 nM | – | – | –
COc1cccc(Cn2ncc3c4sc(I)nc4n(C)c3c2=O)c1 [Compound 40] | < 300 nM | 301 to 800 nM | > 1000 nM | 301 to 800 nM | – | – | –
